# Test results taken from patent US6214537A, “Synthetic peptides and mixtures thereof for detecting HIV antibodies” (Biochem Immunosystems, Inc., priority 1988, dated 2001).
# Positions of bridges follow the written chain, without caps; N, C: chain ends. Residues, ends and D or L forms follow the SMILES beside them. No end group written: not given here.
# Experiments:
# [1] = test system: HIV-1 antibodies; assay: ELISA, single peptides identifying HIV-1 positive sera; type: binding, human
# Experimental: According to this test a peptide or a peptide mixture of the present invention is adsorbed onto the wells of a microtiter plate. The wells are then treated with sera to be tested. After washing, anti-human IgG labeled with peroxidase is added to the wells. The determination of the peroxidase is performed with a corresponding substrate, e.g. with o-phenylene diamine. Also in this procedure the peroxidase can be exchanged by another label, e.g. by a radioactive or fluorescence label.
# (§1) Each well of the microtiter plate is saturated with 100 μl of a solution containing a peptide or mixture of peptides (5 μg/ml) and left overnight. The wells are emptied and washed twice with a washing buffer (Tris, 0.043M; NaCl, 0.5M;thimerosal, 0.01% w/v; Tween 20, 0.05% v/v; pH 7.4). The wells are then saturated with 0.35 ml of washing buffer for 1 hr. at 37° C. and washed once with the same buffer. Serum samples to be analyzed are diluted with specimen buffer (washing buffer plus casein, 0.05% w/v). The wells are rinsed with washing buffer prior to the addition of the diluted serum sample (0.1 ml). These are left to incubate for 1 hr. at room temperature. The wells are then emptied, washed twice rapidly and then once for two minutes with washing buffer. […] The wells are then emptied and washed twice rapidly with washing buffer and then five times in which the buffer was in contact with the well 2 minutes per washing.
# (§2) The substrate solution (3,3', 5,5'-tetramethylbenzidine, 8 mg per ml of DMSO) is diluted with 100 volumes 0.1M citrate-acetate buffer, pH 5.6 containing 0.1% v/v of 30% H2 O2 and added to each well (0.1 ml per well). After 10 minutes the contents of each well is treated with 0.1 ml 2N H2 SO4 and the optical density read at 450 nm. All determinations are done in duplicate.
# [2] = test system: HIV-1-antibodies; assay: ELISA, cyclic versus non-cyclic peptides, sera at various dilutions; type: binding, human
# Experimental: TABLE 5 is provided to illustrate the sensitivity of cyclic versus noncyclic peptides in the ELISA test by comparing the results of some sera at various dilutions.
# Plates used in this experiment were coated with solutions of peptides at 10 μg/ml. (Experimental results of TABLE 5 were obtained with plates coated with peptides at 0,5 μg/ml). Four different HIV-1 positive serum samples were serially diluted and their titers determined. The titer was defined as the serum dilution giving an absorbancy reading of 1:0 in the conditions of the ELISA procedure already described.
# as §1, §2
compound,measurement,setting,value
CC[C@H](C)[C@H](NC(=O)[C@H](CCC(N)=O)NC(=O)[C@H](CCC(=O)O)NC(=O)[C@H](CC(C)C)NC(=O)[C@H](CO)NC(=O)[C@H](CCCCN)NC(=O)[C@H](CC(N)=O)NC(=O)[C@H](CO)NC(=O)[C@H](Cc1c[nH]c2ccccc12)NC(=O)[C@H](CO)NC(=O)[C@H](C)NC(=O)[C@H](CC(N)=O)NC(=O)[C@H](Cc1c[nH]c2ccccc12)NC(=O)[C@@H]1CCCN1C(=O)[C@@H](NC(=O)[C@H](C)NC(=O)[C@@H](NC(=O)[C@@H](NC(=O)[C@@H]1CSSC[C@H](NC(=O)CN)C(=O)N[C@@H](CO)C(=O)NCC(=O)N[C@@H](CCCCN)C(=O)N[C@@H](CC(C)C)C(=O)N[C@@H]([C@@H](C)CC)C(=O)N1)[C@@H](C)O)[C@@H](C)O)C(C)C)C(=O)O [Peptide 96] (H-GCSGKLICTTAVPWNASWSNKSLEQI-OH; disulfide 2-8),% Positive Sera correctly Identified,"[1]; ELISA, single peptide",100%
NH2 -CGVERYLKQQLLGIWGCSGKLICTTAVPWNASWSNKSLEQI-COOH [Peptide 99],% Positive Sera correctly Identified,"[1]; ELISA, single peptide",100%
CGKIEPLGVAPTKAKRRVVQREKR [Peptide 71],% Positive Sera correctly Identified,"[1]; ELISA, single peptide",83%
NH2 -SGKLICTTAVPWNASWSNKSLEQGC-COOH [Peptide 56],% Positive Sera correctly Identified,"[1]; ELISA, single peptide",100%
TTAVPWNASWSNKSLEQGC [Peptide 42],% Positive Sera correctly Identified,"[1]; ELISA, single peptide",5%
NH2 -GCSGKLICTTAVPWNASWSWSNKSLEQI-COOH [Peptide 95],% Positive Sera correctly Identified,"[1]; ELISA, single peptide",100%
"NH2 -GCSGKLICTTAVPWNAS-COOH (H-GCSGKLICTTAVPWNAS-OH; cysteine pairing not given here) [Peptide 77, linear peptide, gp41 604-620]",% Positive Sera correctly Identified,"[1]; ELISA, single peptide",100%
same,ELISA optical density,"[2]; serum 87V103, dilution 1/50",0.000 optical density units
same,ELISA optical density,"[2]; serum 1428, dilution 1/50",0.926 optical density units
same,ELISA optical density,"[2]; serum M-5, dilution 1/50",1.719 optical density units
same,ELISA optical density,"[2]; serum M-5, dilution 1/100",1.459 optical density units
same,ELISA optical density,"[2]; serum M-5, dilution 1/200",1.248 optical density units
same,ELISA optical density,"[2]; serum M-5, dilution 1/400",0.959 optical density units
same,ELISA optical density,"[2]; serum M-5, dilution 1/800",0.057 optical density units
same,ELISA optical density,"[2]; serum M-7, dilution 1/50",0.142 optical density units
same,ELISA optical density,"[2]; serum M-7, dilution 1/100",0.025 optical density units
same,ELISA optical density,"[2]; serum M-7, dilution 1/200",0.007 optical density units
same,ELISA optical density,"[2]; serum M-7, dilution 1/400",0.001 optical density units
same,ELISA optical density,"[2]; serum M-7, dilution 1/800",0.000 optical density units
same,ELISA optical density,"[2]; serum M-8, dilution 1/50",0.795 optical density units
same,ELISA optical density,"[2]; serum M-8, dilution 1/100",0.507 optical density units
same,ELISA optical density,"[2]; serum M-8, dilution 1/200",0.376 optical density units
same,ELISA optical density,"[2]; serum M-8, dilution 1/400",0.209 optical density units
same,ELISA optical density,"[2]; serum M-8, dilution 1/800",0.062 optical density units
same,ELISA optical density,"[2]; serum M-16, dilution 1/50",1.219 optical density units
same,ELISA optical density,"[2]; serum M-16, dilution 1/100",0.962 optical density units
same,ELISA optical density,"[2]; serum M-16, dilution 1/200",0.613 optical density units
same,ELISA optical density,"[2]; serum M-16, dilution 1/400",0.301 optical density units
same,ELISA optical density,"[2]; serum M-16, dilution 1/800",0.205 optical density units
"CGNNPPIPVGE [Peptide 41, NH2 -CGNNPPIPVGE-COOH]",% Positive Sera correctly Identified,[1]; peptide Free,63%
same,% Positive Sera correctly Identified,[1]; peptide coupled,73%
"NH2 -VERYLKDQQLLGIWGCSGKLICTTAVPWNAS-COOH (H-VERYLKDQQLLGIWGCSGKLICTTAVPWNAS-OH; cysteine pairing not given here) [Peptide 81, linear peptide, gp41 590-620]",% Positive Sera correctly Identified,"[1]; ELISA, single peptide",100%
CC[C@H](C)[C@H](NC(=O)CNC(=O)[C@H](CC(C)C)NC(=O)[C@H](CC(C)C)NC(=O)[C@H](CCC(N)=O)NC(=O)[C@H](CCC(N)=O)NC(=O)[C@H](CC(=O)O)NC(=O)[C@H](CCCCN)NC(=O)[C@H](CC(C)C)NC(=O)[C@H](Cc1ccc(O)cc1)NC(=O)[C@H](CCCNC(=N)N)NC(=O)[C@H](CCC(=O)O)NC(=O)[C@@H](N)C(C)C)C(=O)N[C@@H](Cc1c[nH]c2ccccc12)C(=O)NCC(=O)N[C@H]1CSSC[C@@H](C(=O)N[C@H](C(=O)N[C@H](C(=O)N[C@@H](C)C(=O)N[C@H](C(=O)N2CCC[C@H]2C(=O)N[C@@H](Cc2c[nH]c3ccccc23)C(=O)N[C@@H](CC(N)=O)C(=O)N[C@@H](C)C(=O)N[C@@H](CO)C(=O)O)C(C)C)[C@@H](C)O)[C@@H](C)O)NC(=O)[C@H]([C@@H](C)CC)NC(=O)[C@H](CC(C)C)NC(=O)[C@H](CCCCN)NC(=O)CNC(=O)[C@H](CO)NC1=O [Peptide 88] (H-VERYLKDQQLLGIWGCSGKLICTTAVPWNAS-OH; disulfide 16-22),% Positive Sera correctly Identified,"[1]; ELISA, single peptide",100%
NH2 -CGYLKDQQLLGIWGCSGKLICTTAVPWNASWSNKSLEQI-COOH [Peptide 97],% Positive Sera correctly Identified,"[1]; ELISA, single peptide",100%
"CGRAEQASQEVKN [Peptide 46, NH2 -CGRAEQASQEVKN-COOH]",% Positive Sera correctly Identified,[1]; peptide Free,0%
same,% Positive Sera correctly Identified,[1]; peptide coupled,93%
CC[C@H](C)[C@@H]1NC(=O)[C@H](CC(C)C)NC(=O)[C@H](CCCCN)NC(=O)CNC(=O)[C@H](CO)NC(=O)[C@@H](NC(=O)CN)CSSC[C@@H](C(=O)N[C@H](C(=O)N[C@H](C(=O)N[C@@H](C)C(=O)N[C@H](C(=O)N2CCC[C@H]2C(=O)N[C@@H](Cc2c[nH]c3ccccc23)C(=O)N[C@@H](CC(N)=O)C(=O)N[C@@H](C)C(=O)N[C@@H](CO)C(=O)O)C(C)C)[C@@H](C)O)[C@@H](C)O)NC1=O [Peptide 80] (H-GCSGKLICTTAVPWNAS-OH; disulfide 2-8),% Positive Sera correctly Identified,"[1]; ELISA, single peptide",100%
same,ELISA optical density,"[2]; serum 87V103, dilution 1/50",0.003 optical density units
same,ELISA optical density,"[2]; serum 1428, dilution 1/50",1.047 optical density units
same,ELISA optical density,"[2]; serum M-5, dilution 1/50",2.104 optical density units
same,ELISA optical density,"[2]; serum M-5, dilution 1/100",1.881 optical density units
same,ELISA optical density,"[2]; serum M-5, dilution 1/200",1.599 optical density units
same,ELISA optical density,"[2]; serum M-5, dilution 1/800",0.767 optical density units
same,ELISA optical density,"[2]; serum M-7, dilution 1/50",0.191 optical density units
same,ELISA optical density,"[2]; serum M-7, dilution 1/100",0.067 optical density units
same,ELISA optical density,"[2]; serum M-7, dilution 1/200",0.019 optical density units
same,ELISA optical density,"[2]; serum M-7, dilution 1/400",0.010 optical density units
same,ELISA optical density,"[2]; serum M-7, dilution 1/800",0.005 optical density units
same,ELISA optical density,"[2]; serum M-8, dilution 1/50",1.026 optical density units
same,ELISA optical density,"[2]; serum M-8, dilution 1/100",0.737 optical density units
same,ELISA optical density,"[2]; serum M-8, dilution 1/200",0.520 optical density units
same,ELISA optical density,"[2]; serum M-8, dilution 1/400",0.340 optical density units
same,ELISA optical density,"[2]; serum M-8, dilution 1/800",0.159 optical density units
same,ELISA optical density,"[2]; serum M-16, dilution 1/50",1.601 optical density units
same,ELISA optical density,"[2]; serum M-16, dilution 1/100",1.300 optical density units
same,ELISA optical density,"[2]; serum M-16, dilution 1/200",0.903 optical density units
same,ELISA optical density,"[2]; serum M-16, dilution 1/400",0.583 optical density units
same,ELISA optical density,"[2]; serum M-16, dilution 1/800",0.329 optical density units
NH2 -FAFAFGCSGKLICTTAVPWNASWSNKSLEQI-COOH [Peptide 91],% Positive Sera correctly Identified,"[1]; ELISA, single peptide",94%
NH2 -CGLGIWGCSGKLICTTAVPWNASWSNKSLEQI-COOH [Peptide 98],% Positive Sera correctly Identified,"[1]; ELISA, single peptide",100%
GHACVPTDPNPQEVVL [Peptide 14],% Positive Sera correctly Identified,"[1]; ELISA, single peptide",50%
"NH2 -IWGCSGKLICTTAVPWNAS-COOH (H-IWGCSGKLICTTAVPWNAS-OH; cysteine pairing not given here) [Peptide 78, linear peptide, gp41 602-620]",% Positive Sera correctly Identified,"[1]; ELISA, single peptide",100%
